Laboratory results published in patent US9611230B2, “1,3,4-oxadiazole benzoic acid compounds and their use for nonsense suppression and the treatment of disease” (PTC Therapeutics, Inc., priority 2004, dated 2017).

melting point [°C] | Compound
220 to 222 | O=C(O)c1ccc(-c2ncc(-c3ccc(Oc4ccccc4)cc3)o2)cc1 [Compound 647]
248 to 249 | Cc1cccc(-c2cnc(-c3ccc(C(=O)O)cc3)o2)c1 [Compound 632]
247 to 250 | COc1cccc(-c2n[nH]c(-c3cccc(C(=O)O)c3)n2)c1 [Compound 458]
270.5 to 272 | O=C(O)c1cccc(-c2cc(-c3ccc(F)cc3)[nH]n2)c1 [Compound No. 552, 3-[5-(4-fluorophenyl)-1H-pyrazol-3-yl]benzoic acid]
258 to 261 | CC(C)(C)C1CCC(c2nnc(-c3ccc(C(=O)O)cc3)o2)CC1 (stereo not shown) [Compound 621]
299 to 300 | O=C(O)c1cccc(-c2nc(-c3ccc(Cl)cc3)no2)c1 [Compound 508]
237 to 239 | CC(C)(C)c1ccc(-c2nc(-c3ccc(C(=O)O)cc3)no2)cc1 [Compound 141]
240 to 250 | CN(C)c1cc(-c2nnc(-c3ccc(C(=O)O)cc3)o2)ccn1 [Compound 224]
282 to 291 | CC(C)c1ccc(NC(=O)c2nnc(-c3ccc(C(=O)O)cc3)o2)cc1 [Compound 284]
220 to 222 | CC(C)c1ccc(-c2csc(-c3cccc(C(=O)O)c3)c2)cc1 [Compound No. 327, 3-[4-(4-isopropylphenyl)-thiophen-2-yl]-benzoic acid]
273 to 275 | O=C(O)c1ccc(-c2cc(-c3ccc(Cl)cc3)on2)cc1 [Compound 533]
284 to 285 | O=C(O)c1ccc(-c2ncc(-c3cccc(OC(F)(F)F)c3)o2)cc1 [Compound 542]
215 to 216 | O=C(O)c1cccc(-c2noc(-c3ccccc3)c2CO)c1 [Compound 484]
295 to 296 | O=C(O)c1ccc(-c2ncc(-c3cccc(F)c3F)o2)cc1 [Compound 549]
244 to 246 | COc1ccccc1-c1cnc(-c2cccc(C(=O)O)c2)o1 [Compound 593]
273 to 274.5 | O=C(O)c1cccc(-c2cc(-c3ccc(F)cc3)no2)c1 [Compound 504]

melting point [°C] | Compound
> 300 | O=C(O)c1cccc(-c2nc(-c3ccccc3)n[nH]2)c1 [Compound 427]
177 to 178 | CN(C)c1ccccc1-c1nnc(-c2ccc(C(=O)O)cc2)o1 [Compound 601]
231 to 232 | O=C(O)c1cccc(-c2cc(-c3ccccc3F)no2)c1 [Compound 501]
302 to 303 | O=C(O)c1ccc(-c2cc(-c3ccccc3F)no2)cc1 [Compound 535]
268 to 270 | CN(C)c1ccc(-c2nnc(-c3cccc(C(=O)O)c3)o2)cc1 [Compound 4]
262 to 265 | CC(C)c1ccc(-c2nnc(-c3ccc(C(=O)O)cc3)o2)cc1 [Compound 5]
274 to 276 | O=C(O)c1cccc(-c2nnc(-c3ccc(N4CCCC4)cc3)o2)c1 [Compound 280]
249 to 250 | N#Cc1c(-c2cccc(C(=O)O)c2)noc1-c1ccccc1 [Compound 487]
243 to 244 | Cc1ccc(-c2noc(-c3cccc(C(=O)O)c3)n2)cc1 [Compound 512]
324 to 326 | O=C(O)c1ccc(-c2cc(-c3ccc(F)cc3F)no2)cc1 [Compound 538]
235 to 237 | CC(C)c1ccc(-c2coc(-c3cccc(C(=O)O)c3)n2)cc1 [Compound 276]
317 to 319 | O=C(O)c1ccc(-c2cc(-c3ccc(F)cc3F)on2)cc1 [Compound 531]
190 to 192 | O=C(O)c1cccc(-c2nnc(-c3ccccc3)o2)c1 [Compound 615]
250 to 251.5 | O=C(O)c1cccc(-c2ncc(-c3cccc(C(F)(F)F)c3)o2)c1 [Compound 585]
193 to 195 | CC(C)c1ccc(-c2ncc(-c3cccc(C(=O)O)c3)o2)cc1 [Compound No. 320, 3-[2-(4-isopropylphenyl)-oxazol-5-yl]-benzoic acid]
